In data set [1] the target is T1, Cytochrome P450 1B1 (Homo sapiens, UniProt Q16678).
T1 sequence (Q16678 whole entry): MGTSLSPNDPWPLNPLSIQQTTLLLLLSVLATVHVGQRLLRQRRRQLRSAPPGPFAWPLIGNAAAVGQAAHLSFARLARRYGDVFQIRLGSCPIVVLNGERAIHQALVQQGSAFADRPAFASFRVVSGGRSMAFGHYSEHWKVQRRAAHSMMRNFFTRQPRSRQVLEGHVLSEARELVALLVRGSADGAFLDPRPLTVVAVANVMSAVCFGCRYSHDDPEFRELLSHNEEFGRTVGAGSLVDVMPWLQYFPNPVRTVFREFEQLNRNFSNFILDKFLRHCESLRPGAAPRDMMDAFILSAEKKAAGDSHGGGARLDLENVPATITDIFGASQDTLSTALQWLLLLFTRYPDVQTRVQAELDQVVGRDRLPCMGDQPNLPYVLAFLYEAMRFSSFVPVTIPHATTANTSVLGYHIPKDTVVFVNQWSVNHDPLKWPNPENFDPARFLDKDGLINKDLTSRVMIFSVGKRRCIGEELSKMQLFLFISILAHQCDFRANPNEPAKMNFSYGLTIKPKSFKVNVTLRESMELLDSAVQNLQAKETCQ
In words: Inhibition of human recombinant CYP1B1 using 7-ethoxyresorufin as substrate assessed as percent enzyme activity at 1 uM after 30 mins in presence of NADPH by EROD assay relative to control. Set-up: scale not given: the % may be the effect or the level left. The conditions noted are these: read-out: Activity.

Data set [2] deals with T2, CYP1A1 (Homo sapiens, UniProt P04798).
T2 sequence (P04798 whole entry): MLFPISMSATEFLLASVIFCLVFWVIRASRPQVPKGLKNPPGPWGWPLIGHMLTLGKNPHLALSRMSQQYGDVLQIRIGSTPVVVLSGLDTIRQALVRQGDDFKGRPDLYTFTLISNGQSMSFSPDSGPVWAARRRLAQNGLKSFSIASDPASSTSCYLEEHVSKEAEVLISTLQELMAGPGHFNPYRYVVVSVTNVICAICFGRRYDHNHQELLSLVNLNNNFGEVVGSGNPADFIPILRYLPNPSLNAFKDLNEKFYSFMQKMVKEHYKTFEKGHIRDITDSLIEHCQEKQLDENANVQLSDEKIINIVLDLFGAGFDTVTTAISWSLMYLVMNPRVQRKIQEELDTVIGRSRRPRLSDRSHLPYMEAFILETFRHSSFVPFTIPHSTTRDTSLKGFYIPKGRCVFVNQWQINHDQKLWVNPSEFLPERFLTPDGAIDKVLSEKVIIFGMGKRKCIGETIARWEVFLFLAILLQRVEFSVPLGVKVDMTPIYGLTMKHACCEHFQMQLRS
In words: Inhibition of human recombinant CYP1A1 using 7-ethoxyresorufin as substrate assessed as percent enzyme activity at 1 uM after 15 mins in presence of NADPH by EROD assay relative to control. In kind it is ADME. The conditions noted are these: recombinant CYP1A1, probe 7-ethoxyresorufin, read-out: Activity. On the set-up: scale not given: the % may be the effect or the level left.

Data set [3] concerns the target T3, CYP1A2 (Homo sapiens, UniProt P05177).
T3 sequence (P05177 whole entry): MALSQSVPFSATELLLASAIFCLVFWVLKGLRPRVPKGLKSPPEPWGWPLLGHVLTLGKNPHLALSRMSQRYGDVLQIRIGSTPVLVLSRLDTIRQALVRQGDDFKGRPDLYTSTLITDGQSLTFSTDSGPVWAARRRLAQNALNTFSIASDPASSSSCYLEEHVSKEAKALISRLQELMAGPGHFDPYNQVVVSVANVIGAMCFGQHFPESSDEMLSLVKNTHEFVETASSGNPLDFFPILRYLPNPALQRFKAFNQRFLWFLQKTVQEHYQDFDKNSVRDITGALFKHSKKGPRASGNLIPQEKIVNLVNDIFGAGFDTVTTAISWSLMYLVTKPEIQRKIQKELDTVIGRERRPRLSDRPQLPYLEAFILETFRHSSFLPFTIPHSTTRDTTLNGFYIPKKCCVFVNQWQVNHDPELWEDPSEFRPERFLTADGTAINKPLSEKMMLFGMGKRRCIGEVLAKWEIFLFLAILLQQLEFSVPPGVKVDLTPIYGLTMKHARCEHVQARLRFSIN
Kind of data set: Inhibition of human recombinant CYP1A2 using 7-ethoxyresorufin as substrate assessed as percent enzyme activity at 1 uM after 30 mins in presence of NADPH by EROD assay relative to control. In kind it is ADME. On the set-up: scale not given: the % may be the effect or the level left. The conditions noted are these: recombinant CYP1A2, probe 7-ethoxyresorufin, read-out: Activity.

In data set [4] the target is T4, Cytochrome P450 1A1 (Homo sapiens, UniProt P04798).
T4 sequence (P04798 whole entry): T2 sequence (P04798 whole entry)
Kind of data set: Inhibition of human recombinant CYP1A1 using 7-ethoxyresorufin as substrate after 15 mins in presence of NADPH by EROD assay. In kind it is ADME.

Data set [5] in a line: Aqueous solubility of compound in 9:1 PBS/ethanol buffer by shake flask method. It counts as physicochemical.
Data set [6] in a line: Solubility of compound in pH 7.4 PBS by shake flask met. In kind it is physicochemical. The conditions noted are these: buffer.

As a reminder, the IC50 is the concentration that inhibits the measured activity by half. What is called thermodynamic solubility is solubility found after equilibrating the solid with the medium.

Each structure is given as a SMILES string. ≈ marks a conversion by molar mass, not a printed value.

As to `O=c1cc(-c2ccccc2)oc2c1ccc1ccccc12` [ALPHA-NAPHTHOFLAVONE], the activity at 0.5 h, 1 µM is -11.3% in data set [1] and -10.1% in data set [3]. In data set [2], the activity at 0.25 h, 1 µM stood at 0.4%. Moreover, in data set [4], the IC50 is 53.8 nM. The compound also came in with a thermodynamic solubility in data set [5] of 2.63 µM (≈ 0.716 µg/mL). In addition, the solubility result in data set [6] is “Insoluble”.

The record behind these values is ChEMBL document CHEMBL4308906, “Design and synthesis of selective CYP1B1 inhibitor via dearomatization of α-naphthoflavone” (Bioorg Med Chem, 2019).
